Measured values: patent US10487046B1, “Dihydroxytyrosol hexamethylene-1,6-dicarbamate having antioxidant activity and a method of preparing the same” (SHAANXI UNIVERSITY OF SCIENCE AND TECHNOLOGY, priority 2019, dated 2019)

Assay: DPPH Radical Scavenging Activity Assay
Format: biochemical
Settings: for Scavenging Activity (%) (n = 3): DPPH 0.2×10^−4 mol/L in methanol, 30 minutes, 517 nm
Text: DPPH Radical Scavenging Activity Assay 2,2-Diphenyl-1-picryl hydrazyl (DPPH) is an organic compound composed of a stable organic radical. In the DPPH molecule, due to the presence of multiple electron-withdrawing —NO2 and large it bonds of the benzene ring, nitrogen free radical is stabilized. Its methanol solution is purple and has a maximum absorption peak at 517 nm. After the addition of an antioxidant, DPPH captures an electron to be paired with the free electron, and the purple fades and turns into a yellow substance. The absorption at 517 nm disappears, and the degree of fading is quantitatively related to the number of electrons it captures. Based on this principle, a spectrophotometer is used to detect the change of the absorbance of the DPPH radical and the sample solution, and the ability of the sample to provide hydrogen atoms and scavenge free radicals can be measured. (a) Preparation of DPPH solution: measuring exact amount of 2,2-diphenyl-1-picryl hydrazyl (DPPH) and dissolving in methanol to prepare a 0.2×10^−4 mol/L DPPH solution, stored at 0° C. in dark. (b) Preparation of sample solutions: Vc (vitamin C, positive control), dihydroxytyrosol hexamethylene-1,6-dicarbamate, and hydroxytyrosol (control) were dissolved in methanol and diluted in a concentration gradient. Measuring the scavenging activity of the sample solutions: 2 mL of the sample solutions (table 1) at each concentration gradient was taken, 2 mL 0.2×10^−4 mol/L DPPH solution was added, the mixture was mixed and reacted at room temperature in dark for 30 minutes, and methanol was then added to adjust final volume. The absorbance Ai was measured at 517 nm. 2 mL control solution and 2 mL methanol were mixed, and the absorbance Aj was measured. 2 mL DPPH solution and 2 mL methanol were mixed, and the absorbance Ao was measured. (d) The scavenging activity of the sample solution and control solutions is calculated according to the following calculation formula and shown in Table 3 and FIG. 3. Scavenging activity (%)=100×[1−(Ai−Aj)/Ao]

For `O=C1O[C@H]([C@@H](O)CO)C(O)=C1O` [Vc, Vitamin C], the “Scavenging Activity (%) (n = 3)” value (1.76 ppm) was 21.35%, the “Scavenging Activity (%) (n = 3)” value (8.80 ppm) was 30.80% and the “Scavenging Activity (%) (n = 3)” value (21.12 ppm) was 87.03%. The “Scavenging Activity (%) (n = 3)” value (42.24 ppm) was 95.44%, the “Scavenging Activity (%) (n = 3)” value (79.20 ppm) was 96.06% and the “Scavenging Activity (%) (n = 3)” value (112.64 ppm) was 97.88%. For the same compound, the “Scavenging Activity (%) (n = 3)” value (281.60 ppm) was 98.41%, the “Scavenging Activity (%) (n = 3)” value (492.80 ppm) was 99.04% and the “Scavenging Activity (%) (n = 3)” value (792.00 ppm) was 99.42%. The “Scavenging Activity (%) (n = 3)” value (915.20 ppm) was 99.16%.

With `OCCc1ccc(O)c(O)c1` [B, hydroxytyrosol] the “Scavenging Activity (%) (n = 3)” value (1.76 ppm) was 8.69%, the “Scavenging Activity (%) (n = 3)” value (8.80 ppm) was 10.97% and the “Scavenging Activity (%) (n = 3)” value (21.12 ppm) was 18.10%. For the same compound, the “Scavenging Activity (%) (n = 3)” value (42.24 ppm) was 28.89%, the “Scavenging Activity (%) (n = 3)” value (79.20 ppm) was 41.44% and the “Scavenging Activity (%) (n = 3)” value (112.64 ppm) was 45.83%. The “Scavenging Activity (%) (n = 3)” value (281.60 ppm) was 60.58%, the “Scavenging Activity (%) (n = 3)” value (492.80 ppm) was 72.81% and the “Scavenging Activity (%) (n = 3)” value (792.00 ppm) was 76.35%. The “Scavenging Activity (%) (n = 3)” value (915.20 ppm) was 80.61%.

For `O=C(NCCCCCCNC(=O)OCCc1ccc(O)c(O)c1)OCCc1ccc(O)c(O)c1` [A, dihydroxytyrosol hexamethylene-1,6-dicarbamate], the “Scavenging Activity (%) (n = 3)” value (1.76 ppm) was 19.87%, the “DPPH radical scavenging activity (in words)” value (1.76 to 915.20 ppm) was “obvious DPPH radical scavenging activity in a concentration dependent manner” and the “Scavenging Activity (%) (n = 3)” value (8.80 ppm) was 23.68%. The “Scavenging Activity (%) (n = 3)” value (21.12 ppm) was 37.02%, the “Scavenging Activity (%) (n = 3)” value (42.24 ppm) was 68.43% and the “Scavenging Activity (%) (n = 3)” value (79.20 ppm) was 76.52%. The “Scavenging Activity (%) (n = 3)” value (112.64 ppm) was 86.33%, the “Scavenging Activity (%) (n = 3)” value (281.60 ppm) was 91.48% and the “Scavenging Activity (%) (n = 3)” value (492.80 ppm) was 95.31%. For the same compound, the “Scavenging Activity (%) (n = 3)” value (792.00 ppm) was 96.66%, the “Scavenging Activity (%) (n = 3)” value (915.20 ppm) was 97.14% and the “DPPH radical scavenging activity compared with hydroxytyrosol (B)” value (at same concentration) was “better DPPH radical scavenging activity than hydroxytyrosol (B)”.
